Results: US10456441B2, “Augmenting the immune response by promoting cell death of immune cells” (The University of Vermont and State Agricultural College, priority 2014, dated 2019)

What was measured:
[1] = human trials; cited from earlier work
[2] = test system: γδ T cells; assay: Mixed cultures of γδ T cells and BMDC: γδ T cell activation (IL-17, IFN-γ, CD25); assay type: cell-based, mice
Procedure: Cells were washed three times and then rocked with goat anti-rat conjugated magnetic beads at a 10:1 ratio of beads to cell at 4° C. for 45 min. Magnetic depletion was used to remove bead-bound cells. […] After 2 days, cells were removed from anti-TCR-γδ stimulation, supplied with fresh medium plus IL-2, and returned to culture at a density of 0.3×10^6 cells/ml. Cells were counted daily and supplied with fresh media containing 50 units/ml IL-2. […] In addition, in some experiments freshly isolated splenic γδ T cells were prepared using anti-γδ-coated magnetic beads (Miltenyi Biotec) and magnet purification.
(§1) The preparation of bone marrow-derived dendritic cells (BMDC) was done according to the method of Lutz et al. (26) using GM-CSF ([…] PeproTech, Rocky Hill N.J.) or GM-CSF plus IL-4 (10 μg/ml, PeproTech). Cells were used on day 7.
Day 7 γδ T cells and BMDC were cultured either individually or together at a 1:1 ratio (10^6 cells/ml each). To some cultures the following reagents were added: a sonicate of Borrelia burgdorferi (10 μg/ml), zVAD-fmk (MP Biomedical, Santa Ana Calif.) at the doses indicated, necrostatin (50 μM, R&D Systems, Minneapolis, Minn.), anti-TNF-α (10 μg/ml, Calbiochem, Darnstadt, Germany),, anti-IL-1 Receptor antagonist, Anakinra (200 ng/ml, Amgen, Thousand Oaks, Calif.), anti-IL-12 (10 μg/ml, BioLegend San Diego, Calif.), anti-IL-18 (10 μg/ml, MBL, Woburn Mass.), or rat IgG (10 μg/ml Jackson Immunoresearch, West Grove Pa.). Transwell assays were performed using 1×10^6 γδ T cells in 1 ml of complete medium+IL-2 placed in the lower chamber, with 5×10^5 DC in 100 μl placed in the upper chamber. […]
Cytokine levels of IFN-γ, IL-1β, IL-12p40, IL-12p70, IL-17, and TNF-α were detected using the Bio-Plex, MilliPlex, or Luminex immunoassay (Bio-Rad; Millipore-EMD; R&D Systems, Minneapolis, Minn.) according to the manufacturer's protocol. Briefly, samples were run undiluted or diluted 1:10 in RPMI complete media. 50 μl of the magnetic bead working solution was added to each well, then 50 μl of appropriate samples or standards were then added to wells and incubated at room temperature for 30-120 min at 800 rpm on an IKA MS 3 digital shaker. After three washes with 100 μl Bio-Plex wash buffer, incubation with 25 μl of detection antibody solution was done at room temperature for 30-60 min on the shaker. Following another set of three washes, 50 μl of streptavidin-phycoerythrin (PE) in assay buffer was added to each well and incubated as described for the previous step. After an additional three washes, 125 μl of assay buffer was added. Sample data was analyzed with Bio-Plex Manager software.
The following monoclonal antibodies to murine cell surface molecules were purchased from BioLegend: PE-conjugated anti-CD25, APC-conjugated anti-TCR-γδ, and TNF-α neutralizing antibody. Rat IgG was purchased from Jackson Immunoresearch (West Grove, Pa.). For direct staining, single cell suspensions (1×10^6 total cells per staining condition) were washed with cold (4° C.) PBS containing 1% (w/v) BSA fraction V (Sigma) (PBS/1% BSA), incubated with unconjugated rat IgG (50 μg/ml) for 15 min at 4° C., washed again, and then incubated with the appropriate antibodies in PBS/1% BSA. After washing, the cells were fixed with freshly made 1% (v/v) methanol-free formaldehyde (Ted Pella Inc., Redding, Calif.) in PBS/1% BSA.

[3] = molecular target: T1, c-FLIP, caspase-8 (Mus musculus, UniProt O89110); assay: c-FLIP and active caspases in BMDC (biotin-VAD precipitation, immunoblot); assay type: cell-based, mice
T1 construct: endogenous in cells; host or cells: bone marrow-derived dendritic cells (BMDC), day 7, grown in GM-CSF with or without IL-4; whole cell lysates and biotin-VAD precipitates
T1 sequence (O89110 219-480): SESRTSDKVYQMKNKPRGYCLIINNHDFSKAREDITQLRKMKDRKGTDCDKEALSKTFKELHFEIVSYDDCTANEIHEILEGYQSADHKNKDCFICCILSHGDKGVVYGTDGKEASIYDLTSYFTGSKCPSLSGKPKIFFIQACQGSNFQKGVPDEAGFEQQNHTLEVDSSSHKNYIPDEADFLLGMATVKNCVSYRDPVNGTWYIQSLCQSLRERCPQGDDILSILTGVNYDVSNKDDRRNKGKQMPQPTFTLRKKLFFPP
T1 sequence (O35732 whole entry partner): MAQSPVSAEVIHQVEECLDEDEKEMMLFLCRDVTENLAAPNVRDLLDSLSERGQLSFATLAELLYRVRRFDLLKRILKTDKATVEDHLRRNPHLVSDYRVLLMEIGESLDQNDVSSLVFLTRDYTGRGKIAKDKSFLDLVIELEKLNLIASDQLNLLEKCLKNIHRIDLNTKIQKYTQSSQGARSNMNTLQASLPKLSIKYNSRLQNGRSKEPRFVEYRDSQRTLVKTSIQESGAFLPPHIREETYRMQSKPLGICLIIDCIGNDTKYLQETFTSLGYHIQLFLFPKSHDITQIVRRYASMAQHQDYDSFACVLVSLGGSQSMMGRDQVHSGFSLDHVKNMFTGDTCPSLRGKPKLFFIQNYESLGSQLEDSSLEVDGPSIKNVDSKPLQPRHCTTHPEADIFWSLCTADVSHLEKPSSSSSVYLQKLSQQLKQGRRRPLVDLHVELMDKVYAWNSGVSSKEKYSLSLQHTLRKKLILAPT
Procedure: as §1
Day 7 BMDC were lysed in Tris-buffer containing Complete Protease Inhibitor (Roche), 0.2% NP-40 (Roche), and biotin-VAD-fmk (10 μM, MP Biomedicals, Santa Ana, Calif.). Insoluble cell fragments were removed by centrifugation, and the protein concentration of the resulting whole cell lysates was determined by Bradford assay (BioRad, Hercules, Calif.). Whole cell lysates (30 μg per lane) were separated by SDS-PAGE. Precipitation of active caspases was performed by rocking 600 μg of whole cell lysates initially with sepharose 4B beads (Sigma) at 4° C. for 2 hours to remove nonspecific binding of proteins to the beads, followed by overnight rocking incubation with streptavidin-conjugated sepharose beads (Invitrogen) at 4° C. Release of biotin-VAD-fmk-labeled caspases from the streptavidin beads was achieved by heating to 95° C. for 10 min in Laemmli buffer. After gel electrophoresis, proteins were transferred to PVDF membranes (0.2 μm pore size, Bio-Rad), and immunoblots were performed using antibodies (1 μg/ml) against caspase-3, caspase-8 (both Cell Signaling, Danvers, Mass.), caspase-9 (Stressgen, Farmingdale, N.Y.), and RIPK1 (BD Biosciences).

[4] = test system: human DC; assay: Cell death of human DC from peripheral blood monocytes; assay type: cell-based; settings: addition of IL-4 to GM-CSF culture
Procedure: (§2) Human monocytes were obtained as CD14^− cells by magnetic bead purification (Miltenyi Biotech, Auburn, Calif.) from peripheral blood of healthy volunteers. Myeloid DC were prepared by culture of monocytes in AIM V media plus 10% fetal calf serum (HyClone) with 800 U/ml of granulocyte-macrophage colony-stimulating factor (GM-CSF), (BioLegend, San Diego, Calif.) without or with 500 U/ml IL-4 (BioLegend). Cell death was examined by terminal deoxynucleotidyl transferase dUTP nick end labeling (TUNEL). Briefly, cells were stained for expression of cell surface molecules, and then fixed with 1% methanol-free formaldehyde followed by 70% ethanol. After washing, the TUNEL reaction was performed by incubating cells in 50 μl of reaction mix containing 10 units of terminal deoxribosyl transferase (TdT), 2.5 mM cobalt chloride in 1× TdT buffer, and 0.2 pmol/μl of FITC-dUTP (Roche, Indianapolis, Ind.) at 37° C. for 1 hour. The cells were washed twice and fixed in 1% methanol-free formaldehyde. Murine thymocytes were included as a positive control for apoptotic cells. Flow cytometry was performed on an LSRII (BD Biosciences, San Jose, Calif.) calibrated with compensation beads (BD Biosciences). Analysis was performed using FlowJo software (Tree Star, Inc., Ashland, Oreg.).

[5] = test system: BMDC; assay: Cell death of BMDC by TUNEL assay; assay type: cell-based, mice; settings: GM-CSF-cultured BMDC, zVAD 50 μM + Necrostatin 50 μM
Procedure: as §1
as §2, with “Cell” for “Human monocytes were obtained as CD14^− cells by magnetic bead purification (Miltenyi Biotech, Auburn, Calif.) from peripheral blood of healthy volunteers. Myeloid DC were prepared by culture of monocytes in AIM V media plus 10% fetal calf serum (HyClone) with 800 U/ml of granulocyte-macrophage colony-stimulating factor (GM-CSF), (BioLegend, San Diego, Calif.) without or with 500 U/ml IL-4 (BioLegend). Cell”

[6] = γδ T cells + BMDC + B. burgdorferi, zVAD+Necrostatin, 20 h
[7] = exogenous TNF-α (2.5 μg/ml) added, absence of Borrelia

Compound: C[C@H](NC(=O)C(=O)Nc1ccccc1C(C)(C)C)C(=O)N[C@@H](CC(=O)O)C(=O)COc1c(F)c(F)cc(F)c1F [IDN-6556]
- preserving liver function during hepatitis C virus infection [1]: showing promise
- serious side-effects [1]: without exhibiting serious side-effects

Compound: IL-4: cytokine added with GM-CSF during generation of BMDC; upregulates c-FLIP
- ability of BMDC to activate Borrelia-stimulated γδ T cells ([2]; BMDC grown with GM-CSF+IL-4, absence or presence of zVAD): much less able to activate
- level of c-FLIP ([3]; BMDC grown in GM-CSF+IL-4 vs GM-CSF, 7 days): considerably increased
- level of active caspase-8 ([3]; BMDC grown in GM-CSF+IL-4 vs GM-CSF, bVAD precipitates): increase in the level of active caspase-8
- levels of total cellular caspase-8, caspase-9, or caspase-3 ([3]; whole cell lysates, BMDC grown in GM-CSF or GM-CSF+IL-4): no difference
- zVAD-induced death of human DC [4]: blocked

Compound: CN1C(=O)C(Cc2c[nH]c3ccccc23)NC1=S (centres unmarked) [Necrostatin]
- production of these cytokines (TNF-α, IL-17, IFN-γ); toxicity check ([2]; Necrostatin with Borrelia in the absence of zVAD): did not block production
- TNF-α production by zVAD-treated BMDC [2, 6]: reversed
- production of IFN-γ by γδ T cells [2, 6]: reversed
- production of IL-17 by γδ T cells [2, 6]: reversed
- cell death of zVAD-treated BMDC [5]: rescued them from cell death

Compound: TNF-α
- production of IFNγ by γδ T cells [2, 7]: did not augment production
- production of IL-17 by γδ T cells [2, 7]: did not augment production
